Data from PMC3226499, “Environmental Impact on Vascular Development Predicted by High-Throughput Screening” (Environmental Health Perspectives, 2011).

Molecular target: VEGFR3 (Homo sapiens, UniProt P35916)
Test: VEGFR3 biochemical assay
Settings: not given

| AC50 | Molecule |
| --- | --- |
| 6.5 µM | CN(C)[C@@H]1C(O)=C(C(N)=O)C(=O)[C@@]2(O)C(O)=C3C(=O)c4c(O)cccc4[C@@](C)(O)[C@H]3[C@H](O)[C@@H]12 [Oxytetracycline dihydrate, reference compound] |

Tested on: pregnant rabbits
Test: not given
Settings: rabbit, in vivo; cited from earlier work

| Molecule | Developmental phenotype |
| --- | --- |
| COP(=O)(OC)OC=C(Cl)Cl [Dichlorvos] | Maternal pregnancy loss |
| Fc1ccc(Oc2ccnc3cc(Cl)cc(Cl)c23)cc1 [Quinoxyfen] | Maternal pregnancy loss |
| CCS(=O)(=O)c1cccnc1S(=O)(=O)NC(=O)Nc1nc(OC)cc(OC)n1 [Rimsulfuron] | Embryo fetal loss; maternal pregnancy loss |

Same assay, conditions: rabbit-specific effects in ToxRefDB prenatal studies; ref U.S. EPA 2010b; cited from earlier work

| Molecule | Developmental phenotype |
| --- | --- |
| COP(=O)(OC)SCn1c(=O)oc2cc(Cl)cnc21 [Azamethiphos] | Maternal pregnancy loss |
| CCOc1cc(Oc2ccc(C(F)(F)F)cc2Cl)ccc1[N+](=O)[O-] [Oxyfluorfen] | Embryo fetal loss; maternal pregnancy loss |
| CON=C(C(=O)OC)c1ccccc1CON=C(C)c1cccc(C(F)(F)F)c1 [Trifloxystrobin] | Skeletal: axial |
| CCOc1nc(F)cc2nc(S(=O)(=O)Nc3c(Cl)cccc3Cl)nn12 [Diclosulam] | Maternal pregnancy loss |
| C#CCOS(=O)OC1CCCCC1Oc1ccc(C(C)(C)C)cc1 (stereo not drawn) [Propargite] | Skeletal: axial |
| CCOC(=O)NCCOc1ccc(Oc2ccccc2)cc1 [Fenoxycarb] | Skeletal: axial |
| CCCCCOC(=O)COc1cc(N2C(=O)C3=C(CCCC3)C2=O)c(F)cc1Cl [Flumiclorac-pentyl] | Maternal pregnancy loss |
| C=CCOC(=O)C(C)(C)OC(=O)c1cc(-n2c(=O)cc(C(F)(F)F)n(C)c2=O)ccc1Cl [Butafenacil] | Embryo fetal loss |
| CCNP(=S)(OC)O/C(C)=C/C(=O)OC(C)C (stereo not drawn) [Propetamphos] | Embryo fetal loss |
| C[C@@]1(c2ccc(Oc3ccccc3)cc2)OC(=O)N(Nc2ccccc2)C1=O (racemic) [Famoxadone] | Embryo fetal loss; maternal pregnancy loss |
| CCOc1cc(C(C)(C)C)ccc1C1COC(c2c(F)cccc2F)=N1 (stereo not drawn) [Etoxazole] | Skeletal: axial |
| CCOC(=O)COc1cc(-n2ncc(C(F)(F)F)c(C)c2=O)c(F)cc1Cl [Flufenpyr-ethyl] | Maternal pregnancy loss |
| OC(c1ccc(Cl)cc1)(c1ccc(Cl)cc1)C(Cl)(Cl)Cl [Dicofol] | Maternal pregnancy loss |
| N#CSCSC#N [Methylene bis(thiocyanate)] | Maternal pregnancy loss |
| CC1=C(C(=O)Nc2ccccc2)SCCO1 [Carboxin] | Maternal pregnancy loss |

Molecular target: VEGFR2 (Homo sapiens, UniProt P35968)
Test: VEGFR2 biochemical assay
Settings: not given

Chain of VEGFR2 (P35968 20-1356, species assumed): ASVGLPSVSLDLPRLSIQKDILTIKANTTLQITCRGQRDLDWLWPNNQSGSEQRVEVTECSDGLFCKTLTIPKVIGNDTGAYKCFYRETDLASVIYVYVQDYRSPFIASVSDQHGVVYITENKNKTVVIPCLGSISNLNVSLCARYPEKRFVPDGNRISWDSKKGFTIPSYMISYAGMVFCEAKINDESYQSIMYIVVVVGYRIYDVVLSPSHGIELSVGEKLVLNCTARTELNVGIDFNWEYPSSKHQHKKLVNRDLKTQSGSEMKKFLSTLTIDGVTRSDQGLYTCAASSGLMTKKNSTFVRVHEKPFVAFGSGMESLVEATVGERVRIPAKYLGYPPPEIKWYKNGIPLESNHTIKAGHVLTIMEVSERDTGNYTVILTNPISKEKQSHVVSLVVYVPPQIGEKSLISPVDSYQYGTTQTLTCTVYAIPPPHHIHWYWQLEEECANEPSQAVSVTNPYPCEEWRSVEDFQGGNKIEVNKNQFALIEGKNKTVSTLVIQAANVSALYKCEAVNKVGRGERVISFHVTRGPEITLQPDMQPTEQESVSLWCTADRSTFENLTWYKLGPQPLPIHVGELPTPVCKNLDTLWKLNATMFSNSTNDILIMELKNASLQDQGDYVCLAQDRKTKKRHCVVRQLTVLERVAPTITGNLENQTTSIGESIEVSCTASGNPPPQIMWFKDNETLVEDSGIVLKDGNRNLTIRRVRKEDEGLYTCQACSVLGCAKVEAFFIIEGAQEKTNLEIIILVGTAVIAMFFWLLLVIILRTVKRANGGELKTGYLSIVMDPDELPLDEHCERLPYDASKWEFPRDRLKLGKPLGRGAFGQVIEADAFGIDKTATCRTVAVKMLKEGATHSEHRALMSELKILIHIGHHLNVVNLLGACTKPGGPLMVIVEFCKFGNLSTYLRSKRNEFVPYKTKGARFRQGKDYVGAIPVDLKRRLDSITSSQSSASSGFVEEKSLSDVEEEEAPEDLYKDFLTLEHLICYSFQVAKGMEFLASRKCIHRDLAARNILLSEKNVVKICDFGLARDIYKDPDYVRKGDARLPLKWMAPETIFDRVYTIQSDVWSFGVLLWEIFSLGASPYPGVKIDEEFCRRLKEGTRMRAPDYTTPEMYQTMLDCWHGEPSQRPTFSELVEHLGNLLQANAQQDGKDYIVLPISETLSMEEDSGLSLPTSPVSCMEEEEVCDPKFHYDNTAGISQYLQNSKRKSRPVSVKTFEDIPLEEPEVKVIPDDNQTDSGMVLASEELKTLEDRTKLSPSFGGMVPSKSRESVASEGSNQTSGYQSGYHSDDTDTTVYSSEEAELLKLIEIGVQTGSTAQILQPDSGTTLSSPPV

| AC50 | Molecule |
| --- | --- |
| 19 µM | CN(C)[C@@H]1C(O)=C(C(N)=O)C(=O)[C@@]2(O)C(O)=C3C(=O)c4c(O)cccc4[C@@](C)(O)[C@H]3[C@H](O)[C@@H]12 [Oxytetracycline dihydrate, reference compound] |

Molecular target: T1, EphB2 (Homo sapiens, UniProt P29323)
T1 sequence (P29323 569-986 isoform P29323-2 limits assumed): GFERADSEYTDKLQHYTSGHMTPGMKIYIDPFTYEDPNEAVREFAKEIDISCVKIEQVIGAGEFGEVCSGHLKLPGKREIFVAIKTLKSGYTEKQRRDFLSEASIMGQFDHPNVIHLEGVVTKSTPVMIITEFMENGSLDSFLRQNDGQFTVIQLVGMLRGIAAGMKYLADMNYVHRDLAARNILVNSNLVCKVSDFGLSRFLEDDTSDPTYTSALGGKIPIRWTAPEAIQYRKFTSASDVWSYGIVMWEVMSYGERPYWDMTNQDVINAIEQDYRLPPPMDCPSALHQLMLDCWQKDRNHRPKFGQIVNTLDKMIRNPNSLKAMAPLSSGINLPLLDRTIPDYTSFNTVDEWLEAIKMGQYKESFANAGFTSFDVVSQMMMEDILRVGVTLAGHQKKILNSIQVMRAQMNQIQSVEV
Test: EphB2 biochemical assay
Settings: read-out: EphB2 AC50

| Molecule | AC50 |
| --- | --- |
| Abamectin | 17 µM |
| Emamectin benzoate | 21 µM |
| O=C(O)C1(C(=O)Nc2ccc(Cl)cc2Cl)CC1 [Cyclanilide] | 50 µM |

Tested on: six prioritized vascular targets (VEGFR2, TIE2, CCL2, PAI-1, CXCL10, uPAR)
Test: Vascular bioactivity score (VBS): weighted sum of activity across 23 ToxCast assays
Parameters: species or system human
Settings: ToxCast chemicals of Table 2

| Molecule | VBS |
| --- | --- |
| Abamectin | 5.19 |
| CCOc1nc(F)cc2nc(S(=O)(=O)Nc3c(Cl)cccc3Cl)nn12 [Diclosulam] | 2.09 |
| O=C1C2CC=CCC2C(=O)N1SC(Cl)(Cl)Cl (stereo not drawn) [Captan] | 1.14 |
| CN(C)[C@@H]1C(O)=C(C(N)=O)C(=O)[C@@]2(O)C(O)=C3C(=O)c4c(O)cccc4[C@@](C)(O)[C@H]3[C@H](O)[C@@H]12 [Oxytetracycline dihydrate, reference compound] | 3.85 |
| Emamectin benzoate | 2.91 |
| CCC/C(=N\OCC)C1=C(O)CC(CC(C)SCC)CC1=O (stereo not drawn) [Sethoxydim] | 0.00 |
| O=C(O)C1(C(=O)Nc2ccc(Cl)cc2Cl)CC1 [Cyclanilide] | 0.21 |
| Oc1ccc(C(c2ccc(O)cc2)C(Cl)(Cl)Cl)cc1 [2,2-bis-(p-Hydroxyphenyl)-1,1,1-trichloroethane] | 2.28 |

Same assay, conditions: pVDCs with rabbit-specific effects

| Molecule | VBS |
| --- | --- |
| COP(=O)(OC)OC=C(Cl)Cl [Dichlorvos] | 2.34 |
| COP(=O)(OC)SCn1c(=O)oc2cc(Cl)cnc21 [Azamethiphos] | 3.10 |
| Fc1ccc(Oc2ccnc3cc(Cl)cc(Cl)c23)cc1 [Quinoxyfen] | 3.02 |
| CCOc1cc(Oc2ccc(C(F)(F)F)cc2Cl)ccc1[N+](=O)[O-] [Oxyfluorfen] | 1.82 |
| CON=C(C(=O)OC)c1ccccc1CON=C(C)c1cccc(C(F)(F)F)c1 [Trifloxystrobin] | 4.26 |
| CCOc1nc(F)cc2nc(S(=O)(=O)Nc3c(Cl)cccc3Cl)nn12 [Diclosulam] | 2.09 |
| C#CCOS(=O)OC1CCCCC1Oc1ccc(C(C)(C)C)cc1 (stereo not drawn) [Propargite] | 3.79 |
| CCOC(=O)NCCOc1ccc(Oc2ccccc2)cc1 [Fenoxycarb] | 3.60 |
| CCCCCOC(=O)COc1cc(N2C(=O)C3=C(CCCC3)C2=O)c(F)cc1Cl [Flumiclorac-pentyl] | 2.11 |
| C=CCOC(=O)C(C)(C)OC(=O)c1cc(-n2c(=O)cc(C(F)(F)F)n(C)c2=O)ccc1Cl [Butafenacil] | 2.94 |
| CCNP(=S)(OC)O/C(C)=C/C(=O)OC(C)C (stereo not drawn) [Propetamphos] | 2.08 |
| C[C@@]1(c2ccc(Oc3ccccc3)cc2)OC(=O)N(Nc2ccccc2)C1=O (racemic) [Famoxadone] | 1.82 |
| CCS(=O)(=O)c1cccnc1S(=O)(=O)NC(=O)Nc1nc(OC)cc(OC)n1 [Rimsulfuron] | 2.52 |
| CCOc1cc(C(C)(C)C)ccc1C1COC(c2c(F)cccc2F)=N1 (stereo not drawn) [Etoxazole] | 3.66 |
| CCOC(=O)COc1cc(-n2ncc(C(F)(F)F)c(C)c2=O)c(F)cc1Cl [Flufenpyr-ethyl] | 1.73 |
| OC(c1ccc(Cl)cc1)(c1ccc(Cl)cc1)C(Cl)(Cl)Cl [Dicofol] | 1.92 |
| N#CSCSC#N [Methylene bis(thiocyanate)] | 6.55 |
| CC1=C(C(=O)Nc2ccccc2)SCCO1 [Carboxin] | 1.56 |

Same assay, conditions: pVDCs with rat-specific effects

| Molecule | VBS |
| --- | --- |
| Emamectin benzoate | 2.91 |

Molecular target: TIE2 (Homo sapiens, UniProt Q02763)
Test: TIE2 cell-free biochemical assay
Settings: not given

Chain of TIE2 (Q02763 23-1124, species assumed): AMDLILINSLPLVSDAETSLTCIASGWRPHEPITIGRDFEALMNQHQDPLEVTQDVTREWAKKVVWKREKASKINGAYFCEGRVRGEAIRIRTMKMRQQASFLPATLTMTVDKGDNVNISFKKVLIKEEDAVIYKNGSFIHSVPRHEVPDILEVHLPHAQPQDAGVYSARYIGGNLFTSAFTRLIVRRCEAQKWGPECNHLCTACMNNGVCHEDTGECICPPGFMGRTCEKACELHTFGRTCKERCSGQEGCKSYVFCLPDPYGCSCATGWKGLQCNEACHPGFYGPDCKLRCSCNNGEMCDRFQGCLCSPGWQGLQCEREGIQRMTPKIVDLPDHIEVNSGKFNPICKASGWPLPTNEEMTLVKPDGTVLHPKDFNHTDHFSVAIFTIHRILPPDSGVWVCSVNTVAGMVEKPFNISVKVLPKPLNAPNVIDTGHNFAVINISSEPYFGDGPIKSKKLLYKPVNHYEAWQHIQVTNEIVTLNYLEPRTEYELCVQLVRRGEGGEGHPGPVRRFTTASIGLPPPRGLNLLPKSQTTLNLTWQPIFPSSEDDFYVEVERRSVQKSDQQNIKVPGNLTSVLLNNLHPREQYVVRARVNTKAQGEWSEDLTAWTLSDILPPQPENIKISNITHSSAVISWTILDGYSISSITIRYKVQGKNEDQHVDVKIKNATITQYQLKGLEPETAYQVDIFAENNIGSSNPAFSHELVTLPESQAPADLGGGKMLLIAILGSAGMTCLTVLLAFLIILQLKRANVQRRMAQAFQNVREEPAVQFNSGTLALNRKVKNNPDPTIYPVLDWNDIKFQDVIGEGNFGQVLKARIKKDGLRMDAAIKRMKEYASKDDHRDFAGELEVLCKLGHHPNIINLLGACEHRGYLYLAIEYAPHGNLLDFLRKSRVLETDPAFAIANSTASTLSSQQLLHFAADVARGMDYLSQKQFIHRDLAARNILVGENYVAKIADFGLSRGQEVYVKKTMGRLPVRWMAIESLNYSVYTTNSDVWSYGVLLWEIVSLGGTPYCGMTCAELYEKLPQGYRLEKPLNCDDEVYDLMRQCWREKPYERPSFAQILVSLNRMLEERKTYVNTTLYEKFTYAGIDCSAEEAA

| AC50 | Molecule |
| --- | --- |
| 15 µM | CN(C)[C@@H]1C(O)=C(C(N)=O)C(=O)[C@@]2(O)C(O)=C3C(=O)c4c(O)cccc4[C@@](C)(O)[C@H]3[C@H](O)[C@@H]12 [Oxytetracycline dihydrate, reference compound] |

Same assay, conditions: read-out: TIE2 AC50; repeat of the TIE2 assay from the original data series

| Molecule | AC50 |
| --- | --- |
| Abamectin | 38.8 µM |

Molecular target: PTEN (Homo sapiens, UniProt P60484)
Test: PTEN biochemical assay
Settings: not given

Chain of PTEN (P60484 whole entry, species assumed): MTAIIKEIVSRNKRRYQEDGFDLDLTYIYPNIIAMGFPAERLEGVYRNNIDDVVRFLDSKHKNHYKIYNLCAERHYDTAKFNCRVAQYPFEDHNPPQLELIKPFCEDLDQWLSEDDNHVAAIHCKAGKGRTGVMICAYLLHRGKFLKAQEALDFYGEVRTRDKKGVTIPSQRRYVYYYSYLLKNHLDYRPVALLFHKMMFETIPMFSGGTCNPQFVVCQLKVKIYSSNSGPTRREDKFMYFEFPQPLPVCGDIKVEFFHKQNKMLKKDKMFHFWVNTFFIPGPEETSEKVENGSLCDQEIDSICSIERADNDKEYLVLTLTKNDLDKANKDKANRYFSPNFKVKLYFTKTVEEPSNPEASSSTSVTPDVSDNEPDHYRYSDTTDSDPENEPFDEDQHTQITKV

| Molecule | AC50 |
| --- | --- |
| O=C1C2CC=CCC2C(=O)N1SC(Cl)(Cl)Cl (stereo not drawn) [Captan] | 35 µM |
| CN(C)[C@@H]1C(O)=C(C(N)=O)C(=O)[C@@]2(O)C(O)=C3C(=O)c4c(O)cccc4[C@@](C)(O)[C@H]3[C@H](O)[C@@H]12 [Oxytetracycline dihydrate, reference compound] | 1.6 µM |
| CCC/C(=N\OCC)C1=C(O)CC(CC(C)SCC)CC1=O (stereo not drawn) [Sethoxydim] | 22 µM |

Same assay, conditions: read-out: PTEN AC50

| Molecule | AC50 |
| --- | --- |
| CCOc1nc(F)cc2nc(S(=O)(=O)Nc3c(Cl)cccc3Cl)nn12 [Diclosulam] | 50 µM |
| Emamectin benzoate | 2.1 µM |
| O=C(O)C1(C(=O)Nc2ccc(Cl)cc2Cl)CC1 [Cyclanilide] | 3.9 µM |

Tested on: pregnant rats
Test: not given
Settings: rat-specific effects in ToxRefDB prenatal studies; ref U.S. EPA 2010b; cited from earlier work

| Molecule | Developmental phenotype |
| --- | --- |
| Emamectin benzoate | Fetal weight reduction; skeletal: appendicular, axial, cranial |

Molecular target: PI3Ka (Homo sapiens, UniProt P42336)
Test: PI3Ka biochemical assay
Settings: not given

Chain of PI3Ka (P42336 whole entry): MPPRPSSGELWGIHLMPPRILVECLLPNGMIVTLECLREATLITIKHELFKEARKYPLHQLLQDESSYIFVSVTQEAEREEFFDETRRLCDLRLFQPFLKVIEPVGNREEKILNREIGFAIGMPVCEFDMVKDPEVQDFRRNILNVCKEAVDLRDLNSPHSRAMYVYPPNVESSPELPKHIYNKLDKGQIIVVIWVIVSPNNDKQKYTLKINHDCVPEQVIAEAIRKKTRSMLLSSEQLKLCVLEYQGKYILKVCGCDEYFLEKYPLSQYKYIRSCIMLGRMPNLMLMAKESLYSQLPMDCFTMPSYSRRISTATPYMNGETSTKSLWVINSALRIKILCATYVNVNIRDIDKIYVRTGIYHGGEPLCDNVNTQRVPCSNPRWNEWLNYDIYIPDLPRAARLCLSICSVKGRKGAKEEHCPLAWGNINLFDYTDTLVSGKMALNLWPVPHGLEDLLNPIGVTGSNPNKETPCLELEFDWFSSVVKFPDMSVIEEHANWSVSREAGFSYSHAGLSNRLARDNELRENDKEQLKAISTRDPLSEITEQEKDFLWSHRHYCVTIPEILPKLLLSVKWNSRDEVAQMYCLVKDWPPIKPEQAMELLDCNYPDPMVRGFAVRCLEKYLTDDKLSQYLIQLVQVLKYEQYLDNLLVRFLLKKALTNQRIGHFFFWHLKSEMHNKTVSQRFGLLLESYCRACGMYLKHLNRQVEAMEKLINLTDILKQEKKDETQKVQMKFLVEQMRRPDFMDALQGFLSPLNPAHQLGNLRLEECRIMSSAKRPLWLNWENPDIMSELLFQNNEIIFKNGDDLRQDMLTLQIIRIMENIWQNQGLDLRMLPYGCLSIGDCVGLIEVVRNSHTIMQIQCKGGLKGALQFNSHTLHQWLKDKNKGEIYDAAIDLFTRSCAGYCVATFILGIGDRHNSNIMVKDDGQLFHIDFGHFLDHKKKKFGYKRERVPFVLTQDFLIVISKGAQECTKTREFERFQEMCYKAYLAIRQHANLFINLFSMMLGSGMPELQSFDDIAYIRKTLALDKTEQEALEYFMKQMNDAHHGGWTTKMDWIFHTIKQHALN
Chain of PI3Ka (P27986 whole entry partner): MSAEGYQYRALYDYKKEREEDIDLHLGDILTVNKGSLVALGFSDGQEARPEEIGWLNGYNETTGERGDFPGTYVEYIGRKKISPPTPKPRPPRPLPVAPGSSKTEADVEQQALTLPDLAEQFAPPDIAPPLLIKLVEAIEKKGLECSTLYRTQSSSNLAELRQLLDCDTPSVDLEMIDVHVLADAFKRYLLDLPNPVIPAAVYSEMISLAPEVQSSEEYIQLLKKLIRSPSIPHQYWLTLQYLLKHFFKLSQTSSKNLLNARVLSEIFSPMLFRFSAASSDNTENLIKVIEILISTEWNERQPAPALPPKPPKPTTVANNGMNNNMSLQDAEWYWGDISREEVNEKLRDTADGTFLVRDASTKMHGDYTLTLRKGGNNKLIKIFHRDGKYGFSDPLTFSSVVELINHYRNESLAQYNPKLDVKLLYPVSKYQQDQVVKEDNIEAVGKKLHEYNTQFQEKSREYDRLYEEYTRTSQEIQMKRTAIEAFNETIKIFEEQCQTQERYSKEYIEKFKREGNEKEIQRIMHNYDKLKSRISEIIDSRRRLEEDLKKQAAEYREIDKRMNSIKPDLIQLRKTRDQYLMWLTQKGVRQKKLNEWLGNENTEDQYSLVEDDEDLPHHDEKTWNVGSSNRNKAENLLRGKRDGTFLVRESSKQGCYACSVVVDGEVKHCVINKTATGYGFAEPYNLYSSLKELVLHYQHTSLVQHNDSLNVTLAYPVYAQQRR

| Molecule | PI3Ka AC50 | AC50 |
| --- | --- | --- |
| Abamectin | 6.4 µM |  |
| CN(C)[C@@H]1C(O)=C(C(N)=O)C(=O)[C@@]2(O)C(O)=C3C(=O)c4c(O)cccc4[C@@](C)(O)[C@H]3[C@H](O)[C@@H]12 [Oxytetracycline dihydrate, reference compound] |  | 6.2 µM |
| Emamectin benzoate | 7.9 µM |  |
| Oc1ccc(C(c2ccc(O)cc2)C(Cl)(Cl)Cl)cc1 [2,2-bis-(p-Hydroxyphenyl)-1,1,1-trichloroethane] |  | 28 µM |
